Measured values: paper PMC4498724 (Drug Design, Development and Therapy, 2015)

Assays:
ABCG2 [1] = molecular target: T1, ABCG2 (Homo sapiens, UniProt Q9UNQ0); assay: Inhibition of ABCG2-mediated mitoxantrone efflux in ABCG2-transfected cells; type: cell-based
T1 sequence (Q9UNQ0 1-655): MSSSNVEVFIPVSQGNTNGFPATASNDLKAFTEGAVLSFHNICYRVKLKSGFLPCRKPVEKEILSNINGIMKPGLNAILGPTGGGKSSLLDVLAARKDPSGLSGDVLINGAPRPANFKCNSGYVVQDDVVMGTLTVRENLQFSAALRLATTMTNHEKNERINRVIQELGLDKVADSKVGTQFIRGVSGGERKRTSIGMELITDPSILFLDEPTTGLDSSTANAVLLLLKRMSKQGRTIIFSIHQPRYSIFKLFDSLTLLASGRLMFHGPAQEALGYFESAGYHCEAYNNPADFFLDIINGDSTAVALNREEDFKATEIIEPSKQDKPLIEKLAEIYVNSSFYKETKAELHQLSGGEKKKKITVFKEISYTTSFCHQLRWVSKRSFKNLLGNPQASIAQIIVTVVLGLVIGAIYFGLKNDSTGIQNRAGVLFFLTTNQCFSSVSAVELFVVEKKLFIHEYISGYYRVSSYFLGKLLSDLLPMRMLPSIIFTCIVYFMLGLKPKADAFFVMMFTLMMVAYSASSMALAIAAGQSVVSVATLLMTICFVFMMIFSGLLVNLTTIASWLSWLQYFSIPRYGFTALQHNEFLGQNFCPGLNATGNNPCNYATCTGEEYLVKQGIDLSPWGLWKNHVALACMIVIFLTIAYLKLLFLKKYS

MRP1/ABCC1 = MRP1/ABCC1 (Homo sapiens, UniProt P33527); assay: Inhibition of MRP1-mediated calcein efflux in HEK293-ABCC1 cells; type: cell-based; details: 2 μM or 10 μM; 35 μM verapamil taken as 100%
Wild-type HEK293 cells = assay: Intrinsic cytotoxicity, MTT cell-survival assay; details: 72 hours of treatment
ABCG2 [2] = molecular target: T1, ABCG2; assay: Vanadate-sensitive ATPase activity of ABCG2 in Sf9 insect cell membranes; details: 2 μM compound; for Stimulation of vanadate-sensitive ABCG2 ATPase activity: basal activity without inhibitor taken as 100%
human CK2 holoenzyme [3] = molecular target: T2, human CK2 holoenzyme (Homo sapiens, UniProt P68400); assay: biochemical; details: for inhibition at 10 µM: read-out: CK2 inhibition % at 10 µM
human CK2 holoenzyme [4] = molecular target: T2, human CK2 holoenzyme; details: IC50 (CK2) divided by IC50 (ABCG2) of Table 1

T2 sequence (P68400 whole entry): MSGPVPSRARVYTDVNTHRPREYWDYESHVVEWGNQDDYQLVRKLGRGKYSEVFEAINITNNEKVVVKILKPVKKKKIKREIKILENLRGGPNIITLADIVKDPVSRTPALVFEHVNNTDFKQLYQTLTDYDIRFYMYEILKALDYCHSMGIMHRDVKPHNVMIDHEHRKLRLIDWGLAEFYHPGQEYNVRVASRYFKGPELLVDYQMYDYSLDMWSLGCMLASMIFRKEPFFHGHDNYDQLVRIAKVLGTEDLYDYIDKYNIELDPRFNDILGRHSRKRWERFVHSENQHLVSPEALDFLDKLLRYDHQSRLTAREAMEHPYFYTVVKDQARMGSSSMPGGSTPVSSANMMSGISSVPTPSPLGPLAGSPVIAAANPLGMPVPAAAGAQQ
T2 sequence (P67870 whole entry partner): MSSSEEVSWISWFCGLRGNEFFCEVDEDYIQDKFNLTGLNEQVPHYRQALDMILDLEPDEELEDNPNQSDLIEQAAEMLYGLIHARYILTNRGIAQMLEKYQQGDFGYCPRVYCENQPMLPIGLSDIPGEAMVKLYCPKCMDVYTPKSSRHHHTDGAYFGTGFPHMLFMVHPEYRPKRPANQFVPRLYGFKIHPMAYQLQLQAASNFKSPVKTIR
Sequence of MRP1/ABCC1 (P33527 whole entry): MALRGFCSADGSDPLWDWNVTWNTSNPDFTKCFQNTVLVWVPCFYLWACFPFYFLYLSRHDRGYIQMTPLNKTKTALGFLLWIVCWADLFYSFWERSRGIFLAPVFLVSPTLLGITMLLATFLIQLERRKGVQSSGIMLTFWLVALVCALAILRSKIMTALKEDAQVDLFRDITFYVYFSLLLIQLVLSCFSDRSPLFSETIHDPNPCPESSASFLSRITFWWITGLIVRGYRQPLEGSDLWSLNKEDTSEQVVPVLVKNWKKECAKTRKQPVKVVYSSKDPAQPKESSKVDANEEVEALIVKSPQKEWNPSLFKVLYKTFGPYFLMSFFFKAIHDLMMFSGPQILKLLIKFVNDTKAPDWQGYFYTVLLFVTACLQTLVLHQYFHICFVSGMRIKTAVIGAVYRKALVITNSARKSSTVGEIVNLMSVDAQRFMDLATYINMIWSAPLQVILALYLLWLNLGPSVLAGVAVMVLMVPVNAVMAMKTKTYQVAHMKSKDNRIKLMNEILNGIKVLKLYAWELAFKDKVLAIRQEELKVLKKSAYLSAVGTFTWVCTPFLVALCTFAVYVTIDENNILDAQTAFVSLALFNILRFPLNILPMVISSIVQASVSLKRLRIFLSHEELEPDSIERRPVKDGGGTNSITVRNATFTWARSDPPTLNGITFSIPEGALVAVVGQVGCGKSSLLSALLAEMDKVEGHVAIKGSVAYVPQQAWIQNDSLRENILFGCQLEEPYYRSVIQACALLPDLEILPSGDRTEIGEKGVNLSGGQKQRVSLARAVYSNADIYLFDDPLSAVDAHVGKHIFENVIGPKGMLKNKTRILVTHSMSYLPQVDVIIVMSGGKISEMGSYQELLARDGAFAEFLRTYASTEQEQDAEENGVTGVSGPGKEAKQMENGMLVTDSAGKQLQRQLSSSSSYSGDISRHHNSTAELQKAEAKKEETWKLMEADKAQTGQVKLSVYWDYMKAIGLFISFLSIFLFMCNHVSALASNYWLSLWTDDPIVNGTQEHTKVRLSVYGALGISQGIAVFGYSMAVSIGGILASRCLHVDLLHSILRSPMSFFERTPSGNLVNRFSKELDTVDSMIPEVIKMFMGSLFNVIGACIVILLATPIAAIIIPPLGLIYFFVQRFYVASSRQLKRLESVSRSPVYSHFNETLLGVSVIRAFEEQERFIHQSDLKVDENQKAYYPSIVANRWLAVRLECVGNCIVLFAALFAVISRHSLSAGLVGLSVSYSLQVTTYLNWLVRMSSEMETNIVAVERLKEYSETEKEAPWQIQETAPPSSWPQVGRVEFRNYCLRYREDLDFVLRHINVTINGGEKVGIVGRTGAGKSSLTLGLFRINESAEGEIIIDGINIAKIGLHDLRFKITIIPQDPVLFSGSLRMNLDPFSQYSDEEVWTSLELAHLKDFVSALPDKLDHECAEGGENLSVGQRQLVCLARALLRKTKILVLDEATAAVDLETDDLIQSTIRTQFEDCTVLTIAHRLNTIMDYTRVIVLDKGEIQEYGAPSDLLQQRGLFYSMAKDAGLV

## Cc1cc(O)c2c3c(n(CCc4ccccc4)c2c1)-c1ccccc1C3=O [Compound 5f, 9-Hydroxy-7-methyl-5-(2-phenylethyl)-5H-indeno[1,2-b]indole-10-one]
ABCG2 [1]
  IC50: 0.16 ± 0.01 µM
MRP1/ABCC1
  Inhibition of MRP1-mediated calcein efflux: very limited, if any, inhibition
Wild-type HEK293 cells
  Cytotoxicity IG50: 42.3 ± 2.8 µM
ABCG2 [2]
  Stimulation of vanadate-sensitive ABCG2 ATPase activity: 2- to 4.5 fold

## Cc1cc(=O)c2c3c(=O)c4ccccc4c3n(CCc3ccccc3)c2c1=O [Compound 6f, 7-Methyl-5-(2-phenylethyl)-5H-indeno[1,2-b]indole-6,9,10-trione]
ABCG2 [1]
  IC50: 0.84 ± 0.31 µM
MRP1/ABCC1
  Inhibition of MRP1-mediated calcein efflux: very limited, if any, inhibition
Wild-type HEK293 cells
  Cytotoxicity IG50: 15.6 ± 5.9 µM
ABCG2 [2]
  Effect on ABCG2 basal ATPase activity: did not produce any effect

## COc1cccc(CCn2c3c(c4c(O)cccc42)C(=O)c2ccccc2-3)c1 [Compound 5i, 9-Hydroxy-5-[2-(3-methoxyphenyl)ethyl]-5H-indeno[1,2-b]indole-10-one]
ABCG2 [1]
  IC50: 0.37 ± 0.09 µM
Human CK2 holoenzyme [3]
  IC50: ~11.5 µM
  inhibition at 10 µM: 44%
Wild-type HEK293 cells
  Cytotoxicity IG50: 45.7 ± 6.1 µM
ABCG2 [2]
  Stimulation of vanadate-sensitive ABCG2 ATPase activity: 2- to 4.5 fold

## O=c1cc(-c2ccccc2)c(=O)c2c1c1c(=O)c3ccccc3c1n2Cc1ccccc1 [Compound 6e, 5-Benzyl-7-phenyl-5H-indeno[1,2-b]indole-6,9,10-trione]
ABCG2 [1]
  IC50: ~13 µM
Human CK2 holoenzyme [3]
  IC50: ~13 µM
  inhibition at 10 µM: 40%
Wild-type HEK293 cells
  Cytotoxicity IG50: 7.1 ± 1.1 µM
ABCG2 [2]
  Effect on ABCG2 basal ATPase activity: did not produce any effect

## O=c1cc(-c2ccccc2)c(=O)c2c1c1c(=O)c3ccccc3c1n2CCc1ccccc1 [Compound 6g, 7-Phenyl-5-(2-phenylethyl)-5H-indeno[1,2-b]indole-6,9,10-trione]
ABCG2 [1]
  IC50: 0.43 ± 0.01 µM
MRP1/ABCC1
  Inhibition of MRP1-mediated calcein efflux: very limited, if any, inhibition
Human CK2 holoenzyme [3]
  IC50: ~11.5 µM
  inhibition at 10 µM: 44%
Wild-type HEK293 cells
  Cytotoxicity IG50: 3.7 ± 2.2 µM
ABCG2 [2]
  Effect on ABCG2 basal ATPase activity: very limited stimulation

## O=C1c2ccccc2-c2c1c1c(O)cccc1n2CCc1ccccc1 [Compound 5c, 9-Hydroxy-5-(2-phenylethyl)-5H-indeno[1,2-b]indole-10-one]
ABCG2 [1]
  IC50: 0.16 ± 0.02 µM
MRP1/ABCC1
  Inhibition of MRP1-mediated calcein efflux: very limited, if any, inhibition
Human CK2 holoenzyme [4]
  AGCG2/CK2: 47
Human CK2 holoenzyme [3]
  IC50: 7.5 µM
  inhibition at 10 µM: 57%
Wild-type HEK293 cells
  Cytotoxicity IG50: 42.7 ± 9.7 µM
ABCG2 [2]
  Stimulation of vanadate-sensitive ABCG2 ATPase activity: 2- to 4.5 fold

## O=C1c2ccccc2-c2c1c1c(O)cc(-c3ccccc3)cc1n2CCc1ccccc1 [Compound 5g, 9-Hydroxy-7-phenyl-5-(2-phenylethyl)-5H-indeno[1,2-b]indole-10-one]
ABCG2 [1]
  IC50: 0.51 ± 0.09 µM
Human CK2 holoenzyme [3]
  IC50: ~11 µM
ABCG2 [2]
  Stimulation of vanadate-sensitive ABCG2 ATPase activity: 2- to 4.5 fold

## COc1ccc(CCn2c3c(c4c(O)cccc42)C(=O)c2ccccc2-3)cc1 [Compound 5j, 9-Hydroxy-5-[2-(4-methoxyphenyl)ethyl]-5H-indeno[1,2-b]indole-10-one]
ABCG2 [1]
  IC50: 0.2 ± 0.01 µM
Human CK2 holoenzyme [3]
  IC50: ~14 µM
ABCG2 [2]
  Effect on ABCG2 basal ATPase activity: maximal stimulation
  Stimulation of vanadate-sensitive ABCG2 ATPase activity: 2- to 4.5 fold

## O=C1c2ccccc2-c2c1c1c(O)cccc1n2CCCc1ccccc1 [Compound 5d, 9-Hydroxy-5-(3-phenylpropyl)-5H-indeno[1,2-b]indole-10-one]
ABCG2 [1]
  IC50: 0.64 ± 0.23 µM
Human CK2 holoenzyme [3]
  IC50: ~20 µM
  inhibition at 10 µM: 27%
ABCG2 [2]
  Stimulation of vanadate-sensitive ABCG2 ATPase activity: 2- to 4.5 fold

## O=c1ccc(=O)c2c1c1c(=O)c3ccccc3c1n2CCc1ccccc1 [Compound 6c, 5-(2-Phenylethyl)-5H-indeno[1,2-b]indole-6,9,10-trione]
ABCG2 [1]
  IC50: ~30 µM
Human CK2 holoenzyme [3]
  IC50: ~13 µM
  inhibition at 10 µM: 40%
Wild-type HEK293 cells
  Cytotoxicity IG50: 6.9 ± 2.1 µM
ABCG2 [2]
  Effect on ABCG2 basal ATPase activity: did not produce any effect

## COc1ccccc1CCn1c2c(c3c(O)cccc31)C(=O)c1ccccc1-2 [Compound 5h, 9-Hydroxy-5-[2-(2-methoxyphenyl)ethyl]-5H-indeno[1,2-b]indole-10-one]
ABCG2 [1]
  IC50: 0.15 ± 0.01 µM
MRP1/ABCC1
  Inhibition of MRP1-mediated calcein efflux: very limited, if any, inhibition
Human CK2 holoenzyme [3]
  IC50: 1.3 µM
Wild-type HEK293 cells
  Cytotoxicity IG50: 54 ± 14 µM
ABCG2 [2]
  Stimulation of vanadate-sensitive ABCG2 ATPase activity: 2- to 4.5 fold

## O=c1ccc(=O)c2c1c1c(=O)c3ccccc3c1n2CCCc1ccccc1 [Compound 6d, 5-(3-Phenylpropyl)-5H-indeno[1,2-b] indole-6,9,10-trione]
ABCG2 [1]
  IC50: ~15 µM
Human CK2 holoenzyme [3]
  IC50: 6.4 µM
  inhibition at 10 µM: 60%
Wild-type HEK293 cells
  Cytotoxicity IG50: 6.8 ± 0.5 µM
